Assay results taken from PMC3439832 (Journal of agricultural and food chemistry, 2011).
≈ marks a conversion by molar mass, not a printed value. Where “and” joins values, the source holds several entries; their conditions need not be identical. Identical values can stand only once.

Columns and labels:
[1] = test system: anti-p,p′-DDE antibody (mouse polyclonal antibody, sera); assay: indirect competitive ELISA; assay type: binding; settings: for % cross-reactivity: (IC50 p,p′-DDE/IC50 chemicals) × 100
[2] = test system: human tissues; settings: in human tissues; cited from earlier work
[3] = sera of mouse P3 at day 80, before the ELISA was optimized

| Compound | % cross-reactivity ([1]; pooled mouse sera) [%] | IC50 ([1]; pooled mouse sera, ic-ELISA) [mg/L] | further results |
| --- | --- | --- | --- |
| Clc1ccc(C(c2ccccc2Cl)C(Cl)Cl)cc1 (stereo not shown) [o,p′-DDD] | 5.00 | 0.45 (≈ 1.41 µM) |  |
| Clc1ccc(C(c2ccc(Cl)cc2)C(Cl)(Cl)Cl)cc1 [p,p′-DDT, 2,2-bis(p-chlorophenyl)-1,1,1-trichloroethane] | 6.62 | 0.34 (≈ 0.959 µM) | IC50 [1, 3]: about 2.85 μg/mL |
| OC(c1ccc(Cl)cc1)(c1ccc(Cl)cc1)C(Cl)(Cl)Cl [dicofol] |  | >22.5 |  |
| ClC(Cl)=C(c1ccc(Cl)cc1)c1ccccc1Cl [o,p′-DDE] | 0.64 | 3.5 (≈ 11 µM) |  |
| O=C(O)C(c1ccc(Cl)cc1)c1ccc(Cl)cc1 [p,p′-DDA] | 0.28 | 8.025 (≈ 28.5 µM) |  |
| ClC(Cl)=C(c1ccc(Cl)cc1)c1ccc(Cl)cc1 [p,p′-DDE, 1,1-Dichloro-2,2-bis(p-chlorophenyl) ethylene] | 100 | 0.0225 (≈ 0.0707 µM) | half-life [2]: 7–11 years; IC15 ([1]; developed ic-ELISA system): 0.0096 ± 0.0244 mg/L and 0.0096 mg/L; IC50 ([1]; g-DDOH-OVA as coating antigen): 0.69 mg/L (≈ 2.17 µM); IC50 ([1]; s-DCBH-OVA as coating antigen): 0.06 mg/L (≈ 0.189 µM); IC50 [1, 3]: ~0.08 mg/L (≈ 0.252 µM) |
| Clc1ccc(C(c2ccc(Cl)cc2)C(Cl)Cl)cc1 [p,p′-DDD] | 112.5 | 0.02 (≈ 0.0625 µM) |  |
| Clc1ccc(Cc2ccc(Cl)cc2)cc1 [p,p′-DDM] | 59.7 | 0.0377 (≈ 0.159 µM) |  |
| OCC(c1ccc(Cl)cc1)c1ccc(Cl)cc1 [DDOH, 2,2′-bis(4-chlorophenyl)ethanol] | 2.87 | 0.785 (≈ 2.94 µM) |  |
| Clc1ccc(C(c2ccccc2Cl)C(Cl)(Cl)Cl)cc1 (stereo not shown) [o,p′-DDT] |  | >20 |  |
| O=C(c1ccc(Cl)cc1)c1ccc(Cl)cc1 [p,p′-DBP] | 0.27 | 8.357 (≈ 33.3 µM) |  |
| OC(c1ccc(Cl)cc1)c1ccc(Cl)cc1 [DCBH] | 9.25 | 0.2433 (≈ 0.961 µM) |  |
